{"source": "patent US11433071B2", "about": "“Heterocyclylamines as PI3K inhibitors” (Incyte Corporation, priority 2011, dated 2022)", "target": "PI3Kδ (p110δ/p85α) (Homo sapiens (Human), UniProt O00329)", "sequence (O00329 whole entry)": "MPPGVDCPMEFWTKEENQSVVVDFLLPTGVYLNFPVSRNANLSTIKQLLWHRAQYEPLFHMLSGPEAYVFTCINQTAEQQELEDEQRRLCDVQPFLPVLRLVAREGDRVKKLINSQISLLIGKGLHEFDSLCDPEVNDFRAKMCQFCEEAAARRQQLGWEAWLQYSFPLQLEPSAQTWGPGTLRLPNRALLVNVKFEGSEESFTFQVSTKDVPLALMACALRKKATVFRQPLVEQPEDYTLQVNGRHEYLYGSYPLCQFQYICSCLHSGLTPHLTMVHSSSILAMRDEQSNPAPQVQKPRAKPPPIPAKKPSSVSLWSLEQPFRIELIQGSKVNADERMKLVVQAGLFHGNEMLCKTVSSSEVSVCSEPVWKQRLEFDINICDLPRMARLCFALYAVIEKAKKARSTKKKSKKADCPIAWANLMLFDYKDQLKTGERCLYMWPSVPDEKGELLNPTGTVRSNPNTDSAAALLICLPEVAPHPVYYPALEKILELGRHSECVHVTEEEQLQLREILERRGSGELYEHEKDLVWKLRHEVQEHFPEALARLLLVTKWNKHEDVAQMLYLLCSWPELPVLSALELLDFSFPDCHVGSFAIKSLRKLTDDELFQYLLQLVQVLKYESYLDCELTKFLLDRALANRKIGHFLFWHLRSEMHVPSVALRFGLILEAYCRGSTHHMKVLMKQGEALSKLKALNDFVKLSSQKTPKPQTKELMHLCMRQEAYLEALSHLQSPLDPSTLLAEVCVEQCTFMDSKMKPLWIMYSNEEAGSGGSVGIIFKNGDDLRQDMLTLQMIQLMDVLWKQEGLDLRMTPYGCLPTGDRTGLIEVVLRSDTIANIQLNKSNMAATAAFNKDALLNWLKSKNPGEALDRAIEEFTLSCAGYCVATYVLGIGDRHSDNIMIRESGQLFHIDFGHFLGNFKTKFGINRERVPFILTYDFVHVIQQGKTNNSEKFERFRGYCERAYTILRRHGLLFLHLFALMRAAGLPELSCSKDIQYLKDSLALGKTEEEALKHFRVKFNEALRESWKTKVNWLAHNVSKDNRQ", "sequence (P27986 whole entry partner)": "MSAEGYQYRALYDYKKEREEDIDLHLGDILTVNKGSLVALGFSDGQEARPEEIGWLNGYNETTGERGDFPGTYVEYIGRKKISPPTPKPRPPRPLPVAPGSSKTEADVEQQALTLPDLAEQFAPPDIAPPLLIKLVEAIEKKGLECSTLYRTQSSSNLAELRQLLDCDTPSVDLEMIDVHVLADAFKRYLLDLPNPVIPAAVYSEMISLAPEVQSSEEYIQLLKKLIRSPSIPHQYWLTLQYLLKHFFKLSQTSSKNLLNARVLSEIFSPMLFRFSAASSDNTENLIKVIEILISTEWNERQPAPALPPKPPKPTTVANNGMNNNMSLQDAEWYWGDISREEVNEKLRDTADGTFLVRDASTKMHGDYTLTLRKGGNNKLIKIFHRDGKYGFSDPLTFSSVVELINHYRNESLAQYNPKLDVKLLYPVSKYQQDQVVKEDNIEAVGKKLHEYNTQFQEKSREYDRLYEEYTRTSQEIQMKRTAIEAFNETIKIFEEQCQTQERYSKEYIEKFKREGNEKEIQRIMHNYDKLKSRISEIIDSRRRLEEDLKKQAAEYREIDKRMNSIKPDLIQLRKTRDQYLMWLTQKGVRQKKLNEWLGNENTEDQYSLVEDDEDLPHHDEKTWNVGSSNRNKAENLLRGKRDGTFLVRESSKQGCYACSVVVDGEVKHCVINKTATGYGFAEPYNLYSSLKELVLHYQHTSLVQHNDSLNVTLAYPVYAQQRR", "assay": "PI3Kδ scintillation proximity assay (Example A3)", "assay_type": "biochemical", "details": "assay not given", "procedure": "[γ-^33P]ATP (10 mCi/mL) was purchased from Perkin-Elmer (Waltham, Mass.). […] PI3Kδ (p110δ/p85α) was purchased from Millipore (Bedford, Mass.). ATP, MgCl2, DTT, EDTA, MOPS and CHAPS were purchased from Sigma-Aldrich (St. Louis, Mo.). Wheat Germ Agglutinin (WGA) YSi SPA Scintillation Beads was purchased from GE healthcare life sciences (Piscataway, N.J.).\nThe kinase reaction was conducted in polystyrene 384-well matrix white plate from Thermo Fisher Scientific in a final volume of 25 μL. Inhibitors were first diluted serially in DMSO and added to the plate wells before the addition of other reaction components. The final concentration of DMSO in the assay was 0.5%. The PI3K assays were carried out at room temperature in 20 mM MOPS, pH 6.7, 10 mM MgCl2, 5 mM DTT and CHAPS 0.03%. Reactions were initiated by the addition of ATP, the final reaction mixture consisted of 20 μM PIP2, 20 μM ATP, 0.2 μCi [γ-^33P] ATP, 4 nM PI3Kδ. […] 25 mM EDTA, 400 µM ATP. The final concentration of SPA beads was 1.0 mg/mL. After the plate sealing, plates were shaken overnight at room temperature and centrifuged at 1800 rpm for 10 minutes, the radioactivity of the product was determined by scintillation counting on Topcount (Perkin-Elmer). IC50 determination was performed by fitting the curve of percent control activity versus the log of the inhibitor concentration using the GraphPad Prism 3.0 software.", "data": [{"compound": "CCOc1c(C(C)n2nc(C)c3c(N)ncnc32)cc(Cl)c(F)c1C1CNC(=O)O1", "note": "(stereo not shown) [Example 357, 5-{3-[1-(4-amino-3-methyl-1H-pyrazolo[3,4-d]pyrimidin-1-yl)ethyl]-5-chloro-2-ethoxy-6-fluorophenyl}-1,3-oxazolidin-2-one]", "values": [{"measurement": "relative activity among the four separated stereoisomers (peaks 1-4)", "value": "most active enantiomer"}]}]}
